In brackets after ≈: the same amount, converted by molar mass. Structures can show the parent of a compound that is named as a salt.
How the values were obtained:
normal human subjects = settings: single doses of 2.0 g, 24 subjects, cited from earlier work
soft tissues = settings: extravasation about the site of attempted intravenous administration; cited from earlier work
[1] = test system: Marginal Ear Vein of Rabbits; experiment: Peripheral vein irritation on intravenous infusion, rabbits (Table IV); format: in vivo, rabbit; set-up: key: +: Positive or present; -: Negative or absent; settings: 2 hour i.v. infusion, gross postmortem one day after
Method: The emulsion drug delivery system formulation of Emulsions 3 and 4 in Table III was tested in two species of animals, for peripheral vein irritation in order to determine the occurrence of local injection site adverse reactions. […] The two species of animals used were rabbits and dogs. The formulations were given intravenously in a peripheral vein using a Butterfly infusion set (Becton, Dickenson Co., Inc., Rutherford, N.J.). The marginal ear vein was used in the rabbit and the saphenous or the cephalic vein of the leg was used in the dog.
The formulations were given by slow intravenous infusion using a Sage syringe pump (Sage Instruments, Orion Research Inc., Cambridge, MA) over a 2 hour period. The animals were restrained but unanesthetized during the infusion. After the infusion, the animals were returned to their cages and offered food. The animals were sacrificed one day after the infusion.
At sacrifice, the infused vein was opened from the point of infusion and cardiad for several centimeters. The condition of the vein, its intima and the surrounding parenchyma, as well as the presence or absence of orange-yellow material and/or clots in the vein, were recorded in Tables IV and V.

[2] = cited from earlier work; for Ambient Solution pH: commercial drug solution; for pH beyond which significant precipitation occurs: intravenous infusion, commercial drugs
[3] = cited from earlier work
[4] = challenge tests, benzyl alcohol vs parabens as preservative; cited from earlier work
mammals = settings: aqueous solution, intravenous; cited from earlier work
[5] = dissolved in oil phase of soybean oil emulsion, parenteral; cited from earlier work
[6] = propylene glycol, benzyl alcohol and ethyl alcohol as solvents; cited from earlier work
physchem = format: physicochemical
Method: (§1) Because the antiarthritic triazine compound is a base, organic acids as counter-ions were studied to improve drug solubility. […] Additional drug complexes were prepared with various organic and inorganic acids. […] The inherent insolubility of the drug appears to be responsible, to some extent, for the preceding results. In order to overcome the drug insolubility problem one of the objectives considered was to design a dosage form which would improve drug absorption when given by intravenous, intramuscular or intra-articular injection.

[7] = Absorption and excretion of antiarthritic triazine candidate dosage forms; settings: in vivo
Method: as §1

[8] = Solubility of bisantrene in selected media and biological fluids (Table IB); format: physicochemical
[9] = Partitioning of bisantrene in blood; format: in vitro ADME; settings: inferred from solubility characteristics and other information
Text: In serum and plasma, however, due to increase in the pH, the solubility drops considerably and this may be the reason that the drug precipitates at the point of infusion. […] Thus, if the drug can be kept in solution long enough to allow complete dilution in the entire blood volume, then the partitioning should take place without the intermediate precipitation.

Compound: C[C@H]1C[C@@H]2[C@H]([C@@H](O)C[C@@]3(C)[C@H]2CC[C@]3(O)C(=O)COC(=O)CCC(=O)O)[C@@]2(C)C=CC(=O)C=C12 [methylprednisolone sodium succinate]
- tolerability / side effects (normal human subjects; benzyl alcohol or paraben preservative): well tolerated and no important drug-related side effects were encountered
- changes in vital signs, electrocardiograms, electroencephalograms, or laboratory parameters (normal human subjects): No clinically significant changes
- expected corticosteroid induced changes (normal human subjects): reversible

Compound: COc1cccc2c1C(=O)c1c(O)c3c(c(O)c1C2=O)C[C@@](O)(C(=O)CO)C[C@@H]3O[C@H]1C[C@H](N)[C@H](O)[C@H](C)O1 [Adriamycin]
- tissue damage on extravasation (soft tissues): massive tissue necrosis

Compound: C(=N\NC1=NCCN1)/c1c2ccccc2c(/C=N/NC2=NCCN2)c2ccccc12 [Bisantrene HCl]
- External: Reddened ([1]; sex F): +
- External: Yellow Deposit ([1]; sex F): +
- Subcutaneous: Hemorrhage ([1]; sex F): -
- Vascular Lumen: Yellow Deposit ([1]; sex F): +
- External: Reddened ([1]; sex M): -
- External: Swollen ([1]; sex M): -
- External: Yellow Deposit ([1]; sex M): -
- Subcutaneous: Edema ([1]; sex M): +
- Subcutaneous: Hemorrhage ([1]; sex M): -
- Subcutaneous: Yellow Deposit ([1]; sex M): -
- Vascular Lumen: Blood Clot ([1]; sex M): -
- Vascular Lumen: Yellow Deposit ([1]; sex M): +

Compound: CC(=O)Nc1ccc(OCC(O)CNC(C)C)cc1 (stereo not drawn) [Eraldin, practolol]
- Ambient Solution pH [2]: 5.80
- pH beyond which significant precipitation occurs [2]: 7.40

Compound: CN(C)CCCN1c2ccccc2Sc2ccccc21 [Prazine, promazine]
- Ambient Solution pH [2]: 4.85
- pH beyond which significant precipitation occurs [2]: 7.10

Compound: OCc1ccccc1 [benzyl alcohol]
- acute systemic toxicity ([3]; 0.9% (w/v), intravenous): absence of acute systemic toxicity
- half-life ([3]; in vivo, iv): 1.5 h
- volume of distribution ([3]; in vivo): widespread tissue dissemination
- antibacterial activity [4]: higher antibacterial activity

Compound: C(=N\NC1=NCCN1)/c1c2ccccc2c(/C=N/NC2=NCCN2)c2ccccc12 [bisantrene dihydrochloride]
- chemical phlebitis (mammals): chemical phlebitis

Compound: CC(C)NCC(O)COc1cccc2ccccc12 (racemic) [Inderal, propanolol]
- Ambient Solution pH [2]: 3.50
- pH beyond which significant precipitation occurs [2]: 6.00

Compound: COc1ccc2c(c1)N(C[C@H](C)CN(C)C)c1ccccc1S2 [Nozinan, levomepromize]
- Ambient Solution pH [2]: 4.38
- pH beyond which significant precipitation occurs [2]: 6.50

Compound: OCCOCCN1CCN(C(c2ccccc2)c2ccc(Cl)cc2)CC1 (stereo not drawn) [Atarax, hydroxyzine]
- Ambient Solution pH [2]: 5.60
- pH beyond which significant precipitation occurs [2]: 6.40

Compound: N#CC(CCN1CCC(C(N)=O)(N2CCCCC2)CC1)(c1ccccc1)c1ccccc1 [Dipidolor, piritramide]
- Ambient Solution pH [2]: 3.97
- pH beyond which significant precipitation occurs [2]: 4.50

Compound: CN1C(=O)CN=C(c2ccccc2)c2cc(Cl)ccc21 [diazepam]
- pharmacological effects compared with water solution of the sodium salts [5]: nearly equal
- local reactions upon intravenous injection [6]: may not only cause pain upon intravenous injection, but also thrombophlebitis

Compound: CC1CC(OC(=O)C(O)c2ccccc2)CC(C)(C)C1 (stereo not drawn) [cyclandelate]
- pharmacological effects compared with water solution of the sodium salts [5]: nearly equal

Compound: CC(CN1c2ccccc2Sc2ccccc21)N(C)C (stereo not drawn) [Phenergan, promethazine]
- Ambient Solution pH [2]: 5.68
- pH beyond which significant precipitation occurs [2]: 6.42

Compound: CC(C)(C)C(C)(C)Nc1nc(NC(C)(C)C(C)(C)C)nc(N2CC3CCC(CC3)C2)n1 [Antiarthritic Triazine Compound, 3-[4,6-bis[(1,1-2,2-tetramethylpropyl)amino]-s-triazin-2-yl]-3-azabicyclo[3.2.2]nonane]
- increase of solubility (physchem): 500 to 1000 µg/mL
- solubility (physchem): 300 µg/mL (≈ 697 µM)
- solubility in water (physchem): insignificant solubility in water
- solubility range (physchem): 500 to 1500 µg/mL
- solubility (physchem; 1,3-butylene glycol, organic solvent or mixture): 300 µg/mL (≈ 697 µM)
- solubility (physchem; benzyl alcohol, organic solvent or mixture): 800 µg/mL (≈ 1860 µM)
- solubility (physchem; benzyl benzoate, organic solvent or mixture): 1300 µg/mL (≈ 3020 µM)
- solubility (physchem; brij 35 2% solution): 50 µg/mL (≈ 116 µM)
- solubility (physchem; cremophor el, organic solvent or mixture): 200 µg/mL (≈ 464 µM)
- solubility (physchem; dimethyl acetamide, organic solvent or mixture): 700 µg/mL (≈ 1630 µM)
- solubility (physchem; emulphor el-620p, organic solvent or mixture): < 100 µg/mL
- solubility (physchem; ethanol usp, organic solvent or mixture): < 100 µg/mL
- solubility (physchem; propylene glycol isostearate, organic solvent or mixture): 1500 µg/mL (≈ 3480 µM)
- solubility (physchem; propylene glycol, organic solvent or mixture): < 100 µg/mL
- solubility (physchem; triacetin, organic solvent or mixture): 100 µg/mL (≈ 232 µM)
- parenteral absorption [7]: negligible
- oral absorption ([7]; po): slightly better
- dose excreted ([7]; oral, candidate dosage forms, preliminary, read-out: compound excreted in the feces): ~90%

Compound: C[C@H](N)[C@H](O)c1cccc(O)c1 [Aramine, metaraminol]
- Ambient Solution pH [2]: 3.60
- pH beyond which significant precipitation occurs [2]: 5.80

Compound: O=C(CCCN1CC=C(n2c(=O)[nH]c3ccccc32)CC1)c1ccc(F)cc1 [Droperidol]
- Ambient Solution pH [2]: 3.24
- pH beyond which significant precipitation occurs [2]: 5.83

Compound: C(=N\NC1=NCCN1)/c1c2ccccc2c(/C=N/NC2=NCCN2)c2ccccc12 [Bisantrene, bis(2-imidazolen-2-ylhydrazone)-9,10-anthracenedicarboxaldehyde]
- solubility ([8]; 5% dextrose solution, pH 4.6): 10000 µg/mL (≈ 25100 µM)
- solubility ([8]; Plasma, pH 7.7-8.2): 90 µg/mL (≈ 226 µM)
- solubility ([8]; Whole Blood, pH 7.9): 400 µg/mL (≈ 1000 µM)
- solubility ([8]; normal saline, pH 5.5): 2000 µg/mL (≈ 5020 µM)
- solubility ([8]; serum, pH 7.8): 27 µg/mL (≈ 67.8 µM)
- partitioning into erythrocytes [9]: eventually partitions into the erythrocytes

Compound: OCCN(CCO)c1nc(N2CCCCC2)c2nc(N(CCO)CCO)nc(N3CCCCC3)c2n1 [Persantine, dipyridamole]
- Ambient Solution pH [2]: 3.12
- pH beyond which significant precipitation occurs [2]: 5.10

Compound: O=[N+]([O-])OCC(CO[N+](=O)[O-])O[N+](=O)[O-] [nitroglycerin]
- pharmacological effects compared with water solution of the sodium salts [5]: nearly equal
